In patent US10945932B2, “Prebiotic oral care compositions containing carboxylic acids” (COLGATE-PALMOLIVE COMPANY, priority 2013, dated 2021):
Where two headings read alike, the source gives them in different places.

Key:
Actinomyces naeslundii [1] = conditions: A naeslundii, BHI
Experimental: (§5) Late exponential growth phase liquid cultures were prepared by transferring the respective bacterium from blood agar plates to BHI and overnight incubation at 37° C. in an anaerobic atmosphere for A. viscosus, V. parvula, F. nucleatum, P. gingivalis, P. intermedia, T forsythia, A. naeslundii, and C. sputigena, and in a 5% CO2 environment for S. salivarius, S. sanguinis, S. mitis, A. actinomycetemcomitans, S. mutans, S. sobrinus and S. gordonii. Overnight cultures were transferred to BHI and adjusted to a concentration of 1×10^7 CFU/ml (colony forming units per ml) by measuring the optical density at 600 nm (OD600) (BioRad SmartSpec 3000). For each strain, 200 μl of the bacterial suspension was added to a 96-well plate containing 20 μl of the respective carboxylic acids. Final concentrations of the carboxylic acids were set to 5, 10, 20 and 25 μmol/ml. […] Plates were incubated as previously described.
(§6) For each combination of bacterium/carboxylic acid, and for each of their respective controls (i.e. the particular bacterium in the nutritionally rich medium with no carboxylic acid), the optical density was measured at 630 nm (OD630) at 0 h, 24 h and 48 h (Thermo Scientific Multiskan Ascent). Additionally, the OD630 for combinations of bacterium/carboxylic acid grown in a 5% CO2 environment were also measured every hour between 0 h and 9 h.
(§7) The experiment was carried out on three different days (thus providing 3 biological replicas) and on each day the experiment was carried out in quadruple (thus providing 4 technical replicas) for each combination of bacterium with carboxylic acid and for each control. For each day and for each combination, the average (mean) of the values obtained (as detailed above) for the four technical replicas was calculated to provide a single value for each combination on each day.

[2] = test system: Aggregatibacter actinomycetemcomitans; conditions: A actinomycetemcomitans, BHI
Experimental: as §5, §6, §7

Actinomyces viscosus [3] = conditions: A viscosus, BHI
Experimental: as §5, §6, §7

Capnocytophaga sputigena [4] = conditions: C sputigena, BHI
Experimental: as §5, §6, §7

[5] = test system: beneficial oral bacteria and pathogenic oral bacteria; conditions: over 48 hours, threshold value of 1.25
[6] = test system: beneficial oral bacteria and pathogenic oral bacteria; assay: Metabolic activity, prebiotic effect over the whole panel; format: cell-based; conditions: 48 hrs; threshold value of 2
Experimental: (§1) The extent of metabolic activity of the tested bacteria in the presence of the above-mentioned acids after 24 hours and 48 hours was investigated through a high throughput phenotype microarray system (PM) for microbial cells (Biolog Inc.). Each PM can contain up to 95 different biochemical compounds (e.g. organic acids) that may act as substrates for bacteria as well as one negative control, not containing the substrates. Microarray plates were used in which the different wells of each plate were pre-loaded (by the manufacturer, Biolog Inc.) with different organic acids to be tested. Each bacterial species was tested using a separate microarray plate. Thus, a single bacterial species was tested with a variety of organic acids on each particular plate. The microarrays are based on redox technology, using cell respiration as a universal reporter. […] The observation of this color change indicates which of the substrates improve the metabolic activity and health of the cells.
(§2) Each bacterial species was collected from blood agar plates (incubated for 48 hours anaerobically at 37° C.) and transferred to an IF-0 Base inoculation fluid (Biolog Inc.), which is a nutritionally poor medium. […] A 1:5 dilution of this suspension was prepared by mixing 3 mL of the 42% transmittance cell suspension with 15 mL of an inoculation fluid (which inoculation fluid was formed by mixing 11.6 mL sterile water, 62.5 mL IF-0 base inoculation fluid and 0.9 mL of the tetrazolium dye “Biolog Redox Dye mix D”), resulting in a final cell density which was equal to 85% transmittance using a BioRad SmartSpec 3000 Photometer. For each of the acids tested, the microarray plate (obtained from the supplier (Biolog Inc.) with acid already present in the relevant wells in powder form) was directly inoculated with 100 μL/well of this 85% transmittance cell suspension.
(§3) All plates were incubated in an anaerobic atmosphere at 37° C. Color changes were measured spectrophotometrically at 492 nm (Thermo Scientific Multiskan Ascent) at 24 hrs and 48 hrs using the same plate at both time points.
(§4) The controls were also carried out three times, as above.

Streptococcus sanguinis [7] = conditions: S sanguinis, BHI
Experimental: as §5, §6, §7

Tannerella forsythia [8] = conditions: T forsythia, BHI
Experimental: as §5, §6, §7

Actinomyces viscosus [9] = assay: Metabolic activity, Biolog phenotype microarray; format: cell-based; conditions: A viscosus
Experimental: as §1, §2, §3, §4

Streptococcus gordonii = assay: Metabolic activity, Biolog phenotype microarray; format: cell-based; conditions: S gordonii
Experimental: as §1, §2, §3, §4

Actinomyces naeslundii [10] = assay: Metabolic activity, Biolog phenotype microarray; format: cell-based; conditions: A naeslundii
Experimental: as §1, §2, §3, §4

Fusobacterium nucleatum = assay: Metabolic activity, Biolog phenotype microarray; format: cell-based; conditions: F nucleatum
Experimental: as §1, §2, §3, §4

[11] = test system: Aggregatibacter actinomycetemcomitans; assay: Metabolic activity, Biolog phenotype microarray; format: cell-based; conditions: A actinomycetemcomitans
Experimental: as §1, §2, §3, §4

Porphyromonas gingivalis = assay: Metabolic activity, Biolog phenotype microarray; format: cell-based; conditions: P gingivalis
Experimental: as §1, §2, §3, §4

Tannerella forsythia [12] = assay: Metabolic activity, Biolog phenotype microarray; format: cell-based; conditions: T forsythia
Experimental: as §1, §2, §3, §4

Capnocytophaga sputigena [13] = assay: Metabolic activity, Biolog phenotype microarray; format: cell-based; conditions: C sputigena
Experimental: as §1, §2, §3, §4

Streptococcus sanguinis [14] = assay: Metabolic activity, Biolog phenotype microarray; format: cell-based; conditions: S sanguinis
Experimental: as §1, §2, §3, §4

Prevotella intermedia = assay: Metabolic activity, Biolog phenotype microarray; format: cell-based; conditions: P intermedia
Experimental: as §1, §2, §3, §4

Streptococcus mitis = assay: Metabolic activity, Biolog phenotype microarray; format: cell-based; conditions: S mitis
Experimental: as §1, §2, §3, §4

Streptococcus mutans [15] = assay: Metabolic activity, Biolog phenotype microarray; format: cell-based; conditions: S mutans
Experimental: as §1, §2, §3, §4

Streptococcus sobrinus = assay: Metabolic activity, Biolog phenotype microarray; format: cell-based; conditions: S sobrinus
Experimental: as §1, §2, §3, §4

Streptococcus salivarius [16] = assay: Metabolic activity, Biolog phenotype microarray; format: cell-based; conditions: S salivarius
Experimental: as §1, §2, §3, §4

Veillonella parvula = assay: Metabolic activity, Biolog phenotype microarray; format: cell-based; conditions: V parvula
Experimental: as §1, §2, §3, §4

Streptococcus salivarius [17] = conditions: S salivarius, BHI
Experimental: as §5, §6, §7

Streptococcus mutans [18] = conditions: S mutans, BHI
Experimental: as §5, §6, §7

N[C@@H](CC(=O)O)C(=O)O [L-aspartic acid]
extent of growth, maximal OD630 over 48 hr divided by maximal OD of control (control = 1) (Actinomyces naeslundii [1]; 5 μmol/ml): 0.8893 | extent of growth, maximal OD630 over 48 hr divided by maximal OD of control (control = 1) (Actinomyces naeslundii [1]; 10 μmol/ml): 0.8774 | extent of growth, maximal OD630 over 48 hr divided by maximal OD of control (control = 1) (Actinomyces naeslundii [1]; 20 μmol/ml): 0.9021 | extent of growth, maximal OD630 over 48 hr divided by maximal OD of control (control = 1) (Actinomyces naeslundii [1]; 25 μmol/ml): 0.8435 | extent of growth, maximal OD630 over 48 hr divided by maximal OD of control (control = 1) ([2]; 5 μmol/ml): 0.7612 | extent of growth, maximal OD630 over 48 hr divided by maximal OD of control (control = 1) ([2]; 10 μmol/ml): 0.7493 | extent of growth, maximal OD630 over 48 hr divided by maximal OD of control (control = 1) ([2]; 20 μmol/ml): 0.6806 | extent of growth, maximal OD630 over 48 hr divided by maximal OD of control (control = 1) ([2]; 25 μmol/ml): 0.6885 | extent of growth, maximal OD630 over 48 hr divided by maximal OD of control (control = 1) (Actinomyces viscosus [3]; 5 μmol/ml): 0.6862 | extent of growth, maximal OD630 over 48 hr divided by maximal OD of control (control = 1) (Actinomyces viscosus [3]; 10 μmol/ml): 0.6163 | extent of growth, maximal OD630 over 48 hr divided by maximal OD of control (control = 1) (Actinomyces viscosus [3]; 20 μmol/ml): 0.5787 | extent of growth, maximal OD630 over 48 hr divided by maximal OD of control (control = 1) (Actinomyces viscosus [3]; 25 μmol/ml): 0.5023 | extent of growth, maximal OD630 over 48 hr divided by maximal OD of control (control = 1) (Capnocytophaga sputigena [4]; 5 μmol/ml): 0.9521 | extent of growth, maximal OD630 over 48 hr divided by maximal OD of control (control = 1) (Capnocytophaga sputigena [4]; 10 μmol/ml): 0.9529 | extent of growth, maximal OD630 over 48 hr divided by maximal OD of control (control = 1) (Capnocytophaga sputigena [4]; 20 μmol/ml): 0.9776 | extent of growth, maximal OD630 over 48 hr divided by maximal OD of control (control = 1) (Capnocytophaga sputigena [4]; 25 μmol/ml): 0.9489 | prebiotic effect (extent of growth) ([5]; 10 μmol/ml): exhibited prebiotic effects | prebiotic effect (extent of growth) ([5]; 20 μmol/ml): exhibited prebiotic effects | prebiotic effect (metabolic activity) [6]: exhibited prebiotic effects | extent of growth, maximal OD630 over 48 hr divided by maximal OD of control (control = 1) (Streptococcus sanguinis [7]; 5 μmol/ml): 0.8662 | extent of growth, maximal OD630 over 48 hr divided by maximal OD of control (control = 1) (Streptococcus sanguinis [7]; 10 μmol/ml): 0.8606 | extent of growth, maximal OD630 over 48 hr divided by maximal OD of control (control = 1) (Streptococcus sanguinis [7]; 20 μmol/ml): 0.8622 | extent of growth, maximal OD630 over 48 hr divided by maximal OD of control (control = 1) (Streptococcus sanguinis [7]; 25 μmol/ml): 0.8613 | extent of growth, maximal OD630 over 48 hr divided by maximal OD of control (control = 1) (Tannerella forsythia [8]; 5 μmol/ml): 0.9947 | extent of growth, maximal OD630 over 48 hr divided by maximal OD of control (control = 1) (Tannerella forsythia [8]; 10 μmol/ml): 0.9717 | extent of growth, maximal OD630 over 48 hr divided by maximal OD of control (control = 1) (Tannerella forsythia [8]; 20 μmol/ml): 1.0111 | extent of growth, maximal OD630 over 48 hr divided by maximal OD of control (control = 1) (Tannerella forsythia [8]; 25 μmol/ml): 0.9935 | metabolic activity, OD at 492 nm divided by OD of control (control = 1) (Actinomyces viscosus [9]; 24 hrs): 0.9434 | metabolic activity, OD at 492 nm divided by OD of control (control = 1) (Actinomyces viscosus [9]; 48 hrs): 0.9275 | metabolic activity, OD at 492 nm divided by OD of control (control = 1) (Streptococcus gordonii; 24 hrs): 0.8729 | metabolic activity, OD at 492 nm divided by OD of control (control = 1) (Streptococcus gordonii; 48 hrs): 0.8488 | metabolic activity, OD at 492 nm divided by OD of control (control = 1) (Actinomyces naeslundii [10]; 24 hrs): 0.8814 | metabolic activity, OD at 492 nm divided by OD of control (control = 1) (Actinomyces naeslundii [10]; 48 hrs): 0.8283 | metabolic activity, OD at 492 nm divided by OD of control (control = 1) (Fusobacterium nucleatum; 24 hrs): 0.9201 | metabolic activity, OD at 492 nm divided by OD of control (control = 1) (Fusobacterium nucleatum; 48 hrs): 0.9448 | metabolic activity, OD at 492 nm divided by OD of control (control = 1) ([11]; 24 hrs): 1.4358 | metabolic activity, OD at 492 nm divided by OD of control (control = 1) ([11]; 48 hrs): 1.6253 | metabolic activity, OD at 492 nm divided by OD of control (control = 1) (Porphyromonas gingivalis; 24 hrs): 0.8910 | metabolic activity, OD at 492 nm divided by OD of control (control = 1) (Porphyromonas gingivalis; 48 hrs): 0.9017 | metabolic activity, OD at 492 nm divided by OD of control (control = 1) (Tannerella forsythia [12]; 24 hrs): 0.9565 | metabolic activity, OD at 492 nm divided by OD of control (control = 1) (Tannerella forsythia [12]; 48 hrs): 0.9575 | metabolic activity, OD at 492 nm divided by OD of control (control = 1) (Capnocytophaga sputigena [13]; 24 hrs): 0.7060 | metabolic activity, OD at 492 nm divided by OD of control (control = 1) (Capnocytophaga sputigena [13]; 48 hrs): 0.7655 | metabolic activity, OD at 492 nm divided by OD of control (control = 1) (Streptococcus sanguinis [14]; 24 hrs): 0.9451 | metabolic activity, OD at 492 nm divided by OD of control (control = 1) (Streptococcus sanguinis [14]; 48 hrs): 0.9195 | metabolic activity, OD at 492 nm divided by OD of control (control = 1) (Prevotella intermedia; 24 hrs): 0.9390 | metabolic activity, OD at 492 nm divided by OD of control (control = 1) (Prevotella intermedia; 48 hrs): 0.9154 | metabolic activity, OD at 492 nm divided by OD of control (control = 1) (Streptococcus mitis; 24 hrs): 1.0323 | metabolic activity, OD at 492 nm divided by OD of control (control = 1) (Streptococcus mitis; 48 hrs): 0.9065 | metabolic activity, OD at 492 nm divided by OD of control (control = 1) (Streptococcus mutans [15]; 24 hrs): 0.9715 | metabolic activity, OD at 492 nm divided by OD of control (control = 1) (Streptococcus mutans [15]; 48 hrs): 0.8709 | metabolic activity, OD at 492 nm divided by OD of control (control = 1) (Streptococcus sobrinus; 24 hrs): 1.0053 | metabolic activity, OD at 492 nm divided by OD of control (control = 1) (Streptococcus sobrinus; 48 hrs): 0.9338 | metabolic activity, OD at 492 nm divided by OD of control (control = 1) (Streptococcus salivarius [16]; 24 hrs): 0.9496 | metabolic activity, OD at 492 nm divided by OD of control (control = 1) (Streptococcus salivarius [16]; 48 hrs): 0.8503 | metabolic activity, OD at 492 nm divided by OD of control (control = 1) (Veillonella parvula; 24 hrs): 1.8448 | metabolic activity, OD at 492 nm divided by OD of control (control = 1) (Veillonella parvula; 48 hrs): 2.2760 | extent of growth, maximal OD630 over 48 hr divided by maximal OD of control (control = 1) (Streptococcus salivarius [17]; 5 μmol/ml): 0.9808 | extent of growth, maximal OD630 over 48 hr divided by maximal OD of control (control = 1) (Streptococcus salivarius [17]; 10 μmol/ml): 0.9975 | extent of growth, maximal OD630 over 48 hr divided by maximal OD of control (control = 1) (Streptococcus salivarius [17]; 20 μmol/ml): 1.0719 | extent of growth, maximal OD630 over 48 hr divided by maximal OD of control (control = 1) (Streptococcus salivarius [17]; 25 μmol/ml): 0.9943 | extent of growth, maximal OD630 over 48 hr divided by maximal OD of control (control = 1) (Streptococcus mutans [18]; 5 μmol/ml): 0.9466 | extent of growth, maximal OD630 over 48 hr divided by maximal OD of control (control = 1) (Streptococcus mutans [18]; 10 μmol/ml): 0.9230 | extent of growth, maximal OD630 over 48 hr divided by maximal OD of control (control = 1) (Streptococcus mutans [18]; 20 μmol/ml): 0.9036 | extent of growth, maximal OD630 over 48 hr divided by maximal OD of control (control = 1) (Streptococcus mutans [18]; 25 μmol/ml): 0.9149
